Experimental data taken from ChEMBL document CHEMBL3272209, “Anthelmintic 1-cinnamamido-2,4-imidazolidinediones” (1976).
Active and inactive are the calls of the source. The calls are words filed in the database; no cut-off is given here.

Assays:
Assay type in all cases: functional
[1] = test system: Syphacia obvelata; assay: Anthelmintic activity against Syphacia obvelata infected in mouse assessed as reduction in worm burden at 300 mg/kg, po bid for 5 days; settings: 120 h
[2] = test system: Syphacia obvelata; assay: Anthelmintic activity against Syphacia obvelata infected in mouse assessed as reduction in worm burden at 100 mg/kg, po bid for 5 days; settings: 120 h
[3] = test system: Syphacia obvelata; assay: Anthelmintic activity against Syphacia obvelata infected in mouse assessed as reduction in worm burden at 50 mg/kg, po bid for 5 days; settings: for inhibition in vivo at 50 mg/kg: 120 h
[4] = test system: Syphacia obvelata; assay: Anthelmintic activity against Syphacia obvelata infected in mouse assessed as reduction in worm burden at 25 mg/kg, po bid for 5 days; settings: for inhibition in vivo at 25 mg/kg: 120 h
[5] = test system: Syphacia obvelata; assay: Anthelmintic activity against Syphacia obvelata infected in mouse assessed as reduction in worm burden at 10 mg/kg, po bid for 5 days

Row | Compound | inhibition in vivo at 300 mg/kg [1] [%] | inhibition in vivo at 100 mg/kg [2] [%] | inhibition [3] | inhibition [4] | inhibition in vivo at 50 mg/kg [3] [%] | inhibition in vivo at 25 mg/kg [4] [%] | inhibition [5] | inhibition in vivo at 10 mg/kg ([5]; 120 h) [%]
1 | Cc1cc(/C=C/C(=O)NN2CC(=O)NC2=O)ccc1Br | 100 | 81 | inactive | – | – | – | – | –
2 | O=C(/C=C/c1ccc(F)cc1)NN1CC(=O)NC1=O | 100 | 69 | – | inactive | 67 | – | – | –
3 | O=C(/C=C/c1ccc(Cl)cc1)NN1CC(=O)NC1=O | 100 | 97 | – | inactive | 52 | – | – | –
4 | O=C(/C=C/c1ccc2c(c1)OCO2)NN1CC(=O)NC1=O | 100 | 88 | inactive | – | – | – | – | –
5 | O=C(/C=C/c1ccccc1)NN1CC(=O)NC1=O | 86 | 75 | inactive | – | – | – | – | –
6 | CCc1ccc(/C=C/C(=O)NN2CC(=O)NC2=O)cc1Cl | 100 | 87 | inactive | – | – | – | – | –
7 | O=C(/C=C/c1ccc(F)c(Cl)c1)NN1CC(=O)NC1=O | 100 | 100 | – | inactive | 87 | – | – | –
8 | O=C(/C=C/c1ccc(Cl)c(Cl)c1)NN1CC(=O)NC1=O | 100 | 100 | – | – | 100 | 51 | inactive | –
9 | O=C(/C=C/c1ccc(Cl)c(C(F)(F)F)c1)NN1CC(=O)NC1=O | 70 | 76 | inactive | – | – | – | – | –
10 | N#Cc1ccc(/C=C/C(=O)NN2CC(=O)NC2=O)cc1 | 100 | 100 | – | – | 100 | 97 | inactive | –
11 | Cc1ccc(/C=C/C(=O)NN2CC(=O)NC2=O)cc1Cl | 99 | 97 | – | – | 100 | 87 | – | 34
12 | O=C(/C=C/c1cccc(F)c1)NN1CC(=O)NC1=O | 100 | 77 | inactive | – | – | – | – | –
13 | C1CNCCN1.O=C(O)CCCCC(=O)O | 96 | 42 | inactive | – | – | – | – | –
